In patent US12419847B2, “Composition and method for attenuating neuroinflammation, amyloidopathy and tauopathy” (Trustees of Dartmouth College, priority 2020, dated 2025):

Legend:
[1] = tested on: amyloidopathy; conditions: in vivo; cited from earlier work
[2] = mice, orally administered; cited from earlier work
[3] = biological target: T1, ACAT2 (Homo sapiens (Human), UniProt O75908); conditions: cited from earlier work
[4] = tested on: primary cortical neurons; assay: Lactate dehydrogenase (LDH) toxicity assay
Description: Cells were incubated in enriched neurobasal (NB) medium (Thermo Fisher Scientific, Waltham, MA) (500 mL NB media, 200 mM L-glutamine, B-27 with vitamin A, 1 mL penicillin-streptomycin (1%), and 340 mg glucose). Neurons were allowed to grow processes for 4-6 days prior to treatment.
Lactate Dehydrogenase (LDH) Toxicity Assay. Primary cortical neurons were harvested and maintained as described above. […] After treatment, the conditioned media from the cells were collected, spun at 12,000 rpm for 30 minutes to remove cellular debris, supernatant transferred to new tube, and frozen at −80° C. until time of assay. Using Cytotoxicity Detection Kit (LDH) (Roche), media and reaction mixture were mixed, incubated for 30 minutes at room temperature protected from light, and the absorbance was measured at 490 nm.

[5] = tested on: ACAT; assay: ACAT enzyme activity in mouse tissue homogenates after IV injection of nanoparticles; format: in vivo; conditions: delivered IV in nanoparticles
Description: A1^−/− refers to Acat1^−/− mouse. ACAT activity was determined by using a mixed liposome assay. N=4 for WT mice age (2-3 months) and gender matched. N=1 for A1^−/− mouse. N.S., not significant; P<0.05*, P<0.01**, P<0.001***. Analysis by two-way ANOVA. The significance is relative to vehicle-treated group.
A1^−/− refers to Acat1^−/− mouse. Note, the major isoenzyme in mouse liver is ACAT2. ACAT activity was determined without or with perfusion as indicated. N=3-4 for WT mice age- and gender-matched. N=1 for A1^−/− mouse. N.S., not significant; P<0.05*, P<0.01**, P<0.001***. Two-way ANOVA. The significance is relative to vehicle-treated group.
Mice were perfused before brains were isolated. N=2-3 WT mice/group. N=1 A1^−/− mouse. Statistical analysis, 2-way ANOVA. *P<0.05; **P<0.01; ***P<0.001.
As a component of the above-referenced analysis, a portion of the mice were treated with perfusion (to remove blood contamination from tissues).

[6] = tested on: IL-4Rα; assay: IL-4Rα protein content in HMC3 cells (western blot); format: cell-based, human; conditions: for IL-4Rα protein content: human myelin debris-treated HMC3 cells, co-incubation
Description: . Exp. 130:56322) for 21 hours.
. […] Protein was isolated and analyzed by western blot analysis. Vinculin was the loading control. […]; **P<0.01.
Subsequently, myelin debris from human brains was prepared and it was observed that the cholesterol/protein ratio, as well as the protein composition between mouse myelin debris and human myelin debris, were very similar.

[7] = tested on: ABCA1; assay: ABCA1 protein content in human myelin debris-treated HMC3 cells; format: cell-based; conditions: HMC3, human myelin debris 25 μg/mL cholesterol, 0.5 μM, 24 hours
Description: […]. Afterward, cells were harvested for western blot analyses. Lysates of HEK293 cells and lysates of HMC3 cells treated with 10 μM LXR agonist T0901317 for 24 hours were respectively used as negative and positive controls for ABCA1 signals. […] Data are expressed as mean±SEM.
Subsequently, myelin debris from human brains was prepared and it was observed that the cholesterol/protein ratio, as well as the protein composition between mouse myelin debris and human myelin debris, were very similar. […]

[8] = in vivo; cited from earlier work
[9] = tested on: N9 microglial cells; assay: inflammatory responses to LPS in N9 microglial cells (qPCR, IκB-α western blot); format: cell-based, mouse; conditions: 0.5 μM for 4 hours, then LPS 10-1000 ng/mL
Description: Six hours later, mRNA was extracted, and qPCR was performed to monitor pro-inflammatory (FIG. 4A) or anti-inflammatory (FIG. 4B) gene expression. […] Thirty minutes later, proteins were extracted for western blot analysis for total IκB-α, and for phosphorylated […]<0.01.

[10] = tested on: IL-4Rα; assay: IL-4Rα expression in N9 microglial cells (immunoblot)
Description: Cells were harvested for immunoblot analysis for IL-4Rα. Vinculin was the loading control. Data expressed as mean+/− SEM, * p<0.05, ** p<0.01.
IL-4Rα expression was determined by convention methods. 25 μg/mL cholesterol equals 38 μg/mL total myelin debris protein. Data are expressed as mean±SEM. *P<0.05; **P<0.01.

[11] = biological target: mouse ACAT1 (Mus musculus (Mouse), UniProt Q61263); assay: ACAT1 protein by western blot in microRNA-transfected NIH-3T3 mouse fibroblasts; format: cell-based; conditions: for Relative Intensity (ACAT1 normalized to GAPDH): NIH-3T3, GFP-positive cells, 48 hours post-transfection; for reduction in ACAT1 protein content: mouse 3T3 fibroblasts, cDNA transfection
Description: NIH-3T3 mouse fibroblasts were transiently transfected with one of several rAAV vectors encoding EmGFP and microRNA (miR) #52, #53, #54 or #55. Forty-eight hours post-transfection, GFP-positive cells were harvested by FACS. GFP-positive cells were washed then lysed in 10% SDS and syringe homogenized. Twenty microgram of protein per sample was subjected to SDS-PAGE. After western blot analysis, bands were quantified with ImageJ. ACAT1 intensity was normalized to GAPDH as a loading control and expressed as relative intensity.
Four different siRNA molecules (#52-#55; Table 3) targeting the mouse Acat1 gene were inserted into an endogenous mouse microRNA (miR) scaffold using Invitrogen's RNAi design tool. The artificial miRs were ligated into the mammalian expression vector pcDNA6.2-GW/EmGFP-miR. […] The miRs were delivered to the cells using a standard cDNA transfection protocol.

[12] = biological target: T1, ACAT2; conditions: cited from earlier work; remark: listed apart in the source
[13] = biological target: T2, ACAT1 (Homo sapiens (Human), UniProt P35610); assay: human ACAT1 IC50 by mixed liposome assay
T2 sequence (P35610 whole entry): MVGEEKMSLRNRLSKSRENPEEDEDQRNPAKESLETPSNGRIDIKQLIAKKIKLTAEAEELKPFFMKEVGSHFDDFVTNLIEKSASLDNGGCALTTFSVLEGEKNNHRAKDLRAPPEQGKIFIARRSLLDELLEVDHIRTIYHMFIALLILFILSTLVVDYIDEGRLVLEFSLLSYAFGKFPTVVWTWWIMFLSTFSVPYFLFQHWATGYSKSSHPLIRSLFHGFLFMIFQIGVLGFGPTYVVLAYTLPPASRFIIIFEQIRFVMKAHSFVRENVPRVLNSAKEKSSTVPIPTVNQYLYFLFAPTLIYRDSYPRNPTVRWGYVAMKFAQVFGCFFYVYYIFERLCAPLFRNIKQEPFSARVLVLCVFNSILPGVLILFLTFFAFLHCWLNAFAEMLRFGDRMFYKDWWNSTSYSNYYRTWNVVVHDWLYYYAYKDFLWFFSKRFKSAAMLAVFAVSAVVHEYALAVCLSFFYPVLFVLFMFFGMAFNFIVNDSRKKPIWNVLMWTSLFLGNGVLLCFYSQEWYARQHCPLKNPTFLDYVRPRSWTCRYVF
Description: In vitro Mixed Liposomal ACAT Activity Assay. […] Lysed cells were collected and aliquoted into pre-chilled tubes containing the liposomal mixture of taurocholate, phosphatidylcholine, and cholesterol. Tubes were vortexed and kept on ice for 5 minutes. Samples were then incubated in a 37° C. shaking water bath with ^3H-oleoyl CoA added for 10 minutes. The assay was stopped by adding CHCl3:MeOH (2:1). Lipids were extracted and analyzed by the same TLC method described herein.

[14] = biological target: T2, ACAT1; conditions: cited from earlier work

T1 sequence (O75908 whole entry): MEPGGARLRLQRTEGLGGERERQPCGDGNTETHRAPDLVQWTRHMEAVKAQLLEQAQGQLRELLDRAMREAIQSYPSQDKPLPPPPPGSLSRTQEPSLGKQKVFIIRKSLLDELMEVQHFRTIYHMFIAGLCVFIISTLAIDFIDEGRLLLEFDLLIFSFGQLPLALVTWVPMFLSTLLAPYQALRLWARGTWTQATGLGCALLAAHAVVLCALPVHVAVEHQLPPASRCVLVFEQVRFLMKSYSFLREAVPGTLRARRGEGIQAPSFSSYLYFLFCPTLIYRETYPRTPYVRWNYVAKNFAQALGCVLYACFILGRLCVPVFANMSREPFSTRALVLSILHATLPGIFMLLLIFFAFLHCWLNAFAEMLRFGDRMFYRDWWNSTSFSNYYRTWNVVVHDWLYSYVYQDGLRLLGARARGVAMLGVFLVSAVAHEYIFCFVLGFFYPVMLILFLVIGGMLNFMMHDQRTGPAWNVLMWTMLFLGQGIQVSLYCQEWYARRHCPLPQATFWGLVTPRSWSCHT

## CC(C)c1cc(C(C)C)c(CC(=O)NS(=O)(=O)Oc2c(C(C)C)cccc2C(C)C)c(C(C)C)c1 [CI 1011]
[1]
  amyloidopathy in a mouse model for AD: reduce amyloidopathy

## CCCCCCCCCCCCS[C@H](C(=O)Nc1cc(C)c(O)c(C)c1C)c1ccccc1 [Analog F12511]
[2]
  half-life in the blood: 1 to 2 h
[3]
  Ki: 110 nM
[4]; 24 hours, 2 μM to 100 μM
  cellular toxicity (LDH leakage): minimal, if any, toxicity
[4]; 48 hours, very high concentrations (near 100 μM)
  cellular toxicity (LDH leakage): slight increase in toxicity
[4]; 72 hours, 10 μM
  cellular toxicity (LDH leakage): only very minimal toxicity
[4]; 72 hours, high concentration (near 100 μM)
  cellular toxicity (LDH leakage): more toxicity was detected
[5]
  brain permeability: permeable to the brain
[6]
  IL-4Rα protein content: IL-4Rα protein content increases
[7]
  ABCA1 protein content: increased significantly
[8]
  clinical safety: passed phase I clinical safety tests

## CSc1cc(C)nc(SC)c1NC(=O)CN1CCN(CCSc2nc3ccccc3[nH]2)CC1 [Analog K-604, 2-[4-[2-(benzimidazol-2-ylthio)ethyl]piperazin-1yl]-N-[2,4-bis(methylthio)-6-methyl-3-pyridyl]acetamide]
[9]
  inflammatory responses to LPS: attenuates inflammatory responses to LPS
[10]; 0.5 μM for 4 or 12 hours
  expression of the receptor IL-4Rα: increases expression of the receptor IL-4Rα
[10]; mouse myelin debris, 21 hours
  enhancing effect on IL4R-α with myelin debris: more robust
[6]; HMC3 cells, mouse myelin debris, 21 hours
  enhancing effect on IL4R-α with myelin debris: more robust
[6]
  IL-4Rα protein content: IL-4Rα protein content increases
[7]
  ABCA1 protein content: increased significantly
[8]
  clinical safety: passed phase I clinical safety tests

## miR #54: artificial microRNA targeting mouse ACAT1 sequence CCCGGTTCATTCTGATACTGGA (SEQ ID NO:3) (expressed or natural sequence; target site or template, no part of the molecule)
[11]
  Relative Intensity (ACAT1 normalized to GAPDH): 0.54
  reduction in ACAT1 protein content: 50-60%

## CCCCCCCC[C@H](SCCCCCC)C(=O)Nc1c(SC)cc(C)nc1SC [CP113,818]
[1]
  amyloidopathy in a mouse model for AD: reduce amyloidopathy and rescue cognitive deficits

## saucerneol B
[12]; Lee et al. 2004, read-out: IC50 hACAT-2
  IC50: 124000 nM

## miR #52: artificial microRNA targeting mouse ACAT1 sequence GGAGCTGAAGCCACTATTTAT (SEQ ID NO:1) (expressed or natural sequence; the letters are possibly those of the target site)
[11]
  Relative Intensity (ACAT1 normalized to GAPDH): 0.77

## miR Negative Control: negative control miR (SEQ ID NO:9) which does not match any known vertebrate gene (TACTGCGCGTGGAGACG)
[11]
  Relative Intensity (ACAT1 normalized to GAPDH): 1.02

## miR #53: artificial microRNA targeting mouse ACAT1 sequence CTGTTTGAAGTGGACCACATCA (SEQ ID NO:2) (expressed or natural sequence; the letters are possibly those of the target site)
[11]
  Relative Intensity (ACAT1 normalized to GAPDH): 0.56

## COc1ccc([C@@H](O)[C@@H](C)Oc2ccc([C@H]3O[C@H](c4ccc(O[C@H](C)[C@H](O)c5ccc6c(c5)OCO6)c(OC)c4)[C@H](C)[C@H]3C)cc2OC)cc1OC [manassantin B]
[12]; at 1 mM
  inhibition of hACAT-2: 32%

## CCCCCCCCCCCCS(=O)(=O)[C@](F)(C(=O)Nc1cc(C)c(O)c(C)c1C)c1ccccc1 [Analog F26]
[5]
  brain permeability: brain permeable
[13]
  IC50: 13 nM
  potency relative to F12511: ~3 times

## CCOC(=O)OC(=O)OCC [diethyl pyrocarbonate]
[14]
  fold lower IC50 / greater activity for ACAT1 than for ACAT2: 4 fold

## miR #55: artificial microRNA targeting mouse ACAT1 sequence AACTACCCAAGGACTCCTACTGTA (SEQ ID NO:4) (expressed or natural sequence; the letters are possibly those of the target site)
[11]
  Relative Intensity (ACAT1 normalized to GAPDH): 0.39
  reduction in ACAT1 protein content: 50-60%
